Measurements: patent publication US20260020586A1, “METHOD OF PREPARING GRANULAR FEED ADDITIVE” (CJ CHEILJEDANG CORPORATION, priority 2020, published 2026)

Tests used:
[1] = Degree of agglomeration visually evaluated after storage; format: physicochemical; conditions: visual score, good: 0 to poor: 5; after 1 week at 40° C. and 60% relative humidity
pH of granules = format: physicochemical; conditions: granules of Table 8 (bubbling tower, different carbon dioxide input times)

Q: Which results are given for `Cl.NCCCC[C@H](N)C(=O)O` [Comparative Example 7, L-Lysine hydrochloride]?
A: Degree of agglomeration (good: 0-poor: 5) [1]: 1; pH (pH of granules): 5.8
